Literature values, collected in US20120196858A1, “METHOD OF PROMOTING APOPTOSIS AND INHIBITING METASTASIS” (Poniard Pharmaceuticals ,Inc., priority 2009, published 2012).

Test system: lung carcinoma xenografts
Details: previous studies; cited from earlier work

In the case of `CN(c1ncccc1CNc1nc(Nc2ccc3c(c2)CC(=O)N3)ncc1C(F)(F)F)S(C)(=O)=O` [PF-562,271], the tumor microvessel density is listed as “reduced tumor microvessel density”.
